Data published in patent publication US20230413808A1, “Bioactive complexes” (priority 2020, published 2023).

Columns and labels:
[1] = Visual interaction of active ingredient with polyelectrolyte PAA; type: physicochemical
Experimental: To determine interaction between polyelectrolytes (PE; Table 1) and active ingredients (AI; Table 2) aqueous stock solutions of about 200 g/L of the PE and of the active ingredients were prepared. The polyelectrolytes were diluted in water and stirred on magnetic stirrer for at least 30 minutes until a homogenous clear solution was obtained (ratios and amounts are presented in Table 4). The active ingredients were dissolved in water on magnetic stirrer or, if they weren't water soluble, suspended in water and milled by adding glass beads (1 mm) in a stainless steel metal beaker until they reach a volume-based average particle size below 20 μm (90% of particles below 20 μm), as determined by laser diffraction. After that the mixture was filtered with a sieve to remove glass beads and the filtrate was used for further analysis.
A polyelectrolyte solution, PAA or chitosan, was added to a 100-150 mL glass beaker, followed by water and an active ingredient solution/suspension. The mixture was stirred for at least 4 hours, and samples were observed after at least 16 hours. The visual observable interactions were divided into five categories (see Table 3). The categories were chosen by comparison to a blank sample containing the same concentration of active ingredient in water but without polyelectrolyte. […] Interactions were studied over a large range of active ingredient to polyelectrolyte ratios, including 10.000:1 (w/w), 1000:1 (w/w), 100:1 (w/w), 10:1 (w/w), 1:1 (w/w), 1:10 (w/w), 1:100 (w/w) and 1:1000) (w/w).

[2] = Visual interaction with polyanion sodium lignosulfonate; type: physicochemical; settings: visible complex formation
Humectancy assay = type: physicochemical; settings: dried at 54° C., then 97% relative humidity at 25° C.; weight after/before x 100
Experimental: The complexes of the interaction assay were used to conduct a humectancy assay. […] After reweighing on an analytical balance, the trays were placed in a climate chamber and stored for at least 2 days at 54° C. or until no further weight change was observed. […] The air tight box was 20 cm×12 cm×7 cm. In the box a chicken wire construct was used to create two levels with 10-20 ml of saturated solution of dipotassium sulfate in a petri dish in a lower level, and the samples in an upper level. Boxes were located into an incubator at 25° C. The boxes were incubated for at least 5 days at 25° C. before use to allow equilibration of temperature and humidity. Hereafter, the trays were reweighed.
The change in humectancy by combining a pesticide and polyelectrolyte is expressed as percent value by multiplying the sample weight after incubation (w2) with 100 divided with the sample weight before incubation (w1) using the following equation: […]
To evaluate the effect of the interaction of the active ingredient and polyelectrolyte on humectancy (synergetic/antagonistic/no effect), the determined Humectancy of the samples containing both active ingredient and polyelectrolyte “Humectancy (blend)” was divided by the theoretical value of Humectancy of the blend provided by respective proportion (% AI; % PE) of each pesticide and polyelectrolyte using the following equation: […]
According to this formula, a positive result of more than 1 is indicative of synergy.
The complexes obtained with the method of WO2010035118, with both ratios of 2:1 and 1:5 (PAA:AI) were tested for humectancy. […] For each sample, the test was carried in triplicate.
For each sample, the test was carried in triplicate.

[3] = test system: Trifolium repens (Clover); assay: Herbicide efficacy of glyphosate on clover; type: in vivo
Excerpt: (§1) The efficacy of glyphosate is often sub-optimal because after drying of the glyphosate active ingredient on the plant tissue the rate of uptake is reduced (dry glyphosate is taken up poorly by the plant tissue). A complex of glyphosate-polycation with improved humectancy properties will remain longer as a wet film on the plant tissue, thereby enhancing uptake of glyphosate in the plant tissue and enhancing its herbicidal activity. In this experiment the effect of a formed complex on efficacy of glyphosate was assessed. The experiment was performed with hard water (500 ppm CaCO3) and with soft water (50 ppm CaCO3).
(§2) The following method was used. Seeds of rye grass and clover were sown in 2 L plastic pots (10 seeds pot) and grown in Lentse Potgrond (Horticoop; Bleiswijk, the Netherlands) in a greenhouse at 22° C. and at light 16 h and dark 8 h, humidity 75%. The experiment was carried out with 2 pots (replications) per treatment. The pots were watered as to keep the plants growing optimal. At the four-five leaf stage, when plants reached a height of 15-20 cm, they were sprayed with the glyphosate treatments with and without PAA (formulations: see Table 12). The spray was such that the plants were wetted completely and uniform. 12 days after the glyphosate treatments, the fresh weight and dry weight of the parts of the plants that were above ground were measured (grams). For dry weight, plants were first dried in an oven at 67 degree Celsius for 48 hours and weight was measured.
(§3) With the method described above rye grass plants were sprayed with two glyphosate formulations: • A. 2700 ppm glyphosate plus 270 ppm complexed with PAA at a 10:1 ratio (glyphosate:PAA; w/w) (formulation see Table 12). • B. 2700 ppm glyphosate without PAA (formulation, see Table 12).

[4] = test system: Lolium perenne (Ryegrass); assay: Herbicide efficacy of glyphosate on rye grass; type: in vivo; settings: for Extra reduction in dry weight: complex formation with PAA vs without PAA, first statement of b170; for Extra reduction in dry weight (second statement): second statement of b170
Excerpt: as §1, §2, §3

[5] = soft water, complex formation with PAA vs without PAA

O=C(O)CNCP(=O)(O)O [Glyphosate, N-(phosphonomethyl)glycine]
Visual observation category, Active ingredient: PAA ([1]; ratio active ingredient:PAA 1.000:1 (w/w)): N | Visual observation category, Active ingredient: PAA ([1]; ratio active ingredient:PAA 1:1 (w/w)): N | Visual observation category, Active ingredient: PAA ([1]; ratio active ingredient:PAA 1:10 (w/w)): N | Visual observation category, Active ingredient: PAA ([1]; ratio active ingredient:PAA 1:100 (w/w)): N | Visual observation category, Active ingredient: PAA ([1]; ratio active ingredient:PAA 1:1000 (w/w)): N | Visual observation category, Active ingredient: PAA ([1]; ratio active ingredient:PAA 10.000:1 (w/w)): N | Interaction with the polyanion sodium lignosulfonate [2]: did not form a visible complex | Humectancy (Humectancy assay): 231.3% | Extra reduction in dry weight ([3]; hard water, complex formation with PAA (Formulation A) vs without PAA (Formulation B)): 74% | Extra reduction in fresh weight ([3]; hard water, complex formation with PAA vs without PAA): 38% | Extra reduction in dry weight [3, 5]: 47% | Extra reduction in fresh weight [3, 5]: 44% | Extra reduction in dry weight ([4]; hard water): 56% | Extra reduction in dry weight (second statement) ([4]; hard water): 48% | Extra reduction in dry weight ([4]; soft water): 44% | Extra reduction in dry weight (second statement) ([4]; soft water): 46%
